Measurements published in patent US7928239B2, “Inhibition of RAF kinase using quinolyl, isoquinolyl or pyridyl ureas” (Bayer Healthcare LLC, priority 1999, dated 2011).

`CNC(=O)c1ccc(Oc2ccc(NC(=O)Nc3ccc(Cl)c(C(F)(F)F)c3)cc2)cn1` [Entry 56, N-(4-chloro-3-(trifluoromethyl)phenyl)-N′-(4-(2-(N-methylcarbamoyl)-5-pyridyloxy)phenyl) urea] showed a melting point of 238 to 245 °C.
Work on `CNC(=O)c1cc(Oc2ccc(NC(=O)Nc3ccc(Oc4ccnc(C(=O)NC)c4)cc3)cc2)ccn1` [Entry 103, bis(4-(2-(N-methylcarbamoyl)-4-pyridyloxy)phenyl) urea] yielded a melting point of 125 to 130 °C.
